From patent publication US8975259B2, “Compositions and methods for inhibiting G protein signaling” (University of Rochester, priority 2007, dated 2015) come the findings set out here.

Molecules are shown by their SMILES. Entries after “also recorded” stand apart in the source; their conditions may differ.

The subject of experiment [1] is Rac1 activation in differentiated HL60 cells. The experiment is described as follows: fMLP-induced Rac1 activation in differentiated HL60 cells. The class given is cell-based, human. Conditions: 10 μM compound, 1 μM fMLP; result in words. The procedure: Differentiated HL60 cells stably expressing GFP-PH-Akt were challenged with 250 nM fMLP in the presence and absence of 10 μM concentrations of the indicated compounds. Translocation of GFP-PH-Akt to the plasma membrane was evaluated by Western blot. Quantification shown below. ***, P<0.001 analysis of variance (ANOVA) is statistically different from control (PBS+vehicle). […] Differentiated HL60 cells were challenged with 1 μM fMLP in the presence and absence of 10 μM concentrations of the indicated compounds. Rac1 activation was assessed by Western blots of affinity-precipitated GTP-Rac1 from HL60 cell lysates. Western blot shown is representative of three independent experiments and quantitation contains data pooled from three independent experiments±S.E.M. *P<0.05 ANOVA is statistically different from control (DMSO only). n=3. […] Differentiated HL60 cells were challenged with 250 nM fMLP or 250 nM PMA in the presence and absence of 10 μM compounds or 100 nM Wortmannin (Wtmn). NADPH oxidase activity was determined after reaction with NBT by absorbance at 540 nm. Data shown is contains data pooled from three independent experiments (each in duplicate)±S.E.M. *, P<0.05 ANOVA is statistically different from control (DMSO only).
HL60 cells (differentiated for 4 days) were washed with and resuspended in NaCl buffer to a final concentration of 20×10^6 cells/ml. Cells (10×10^6/reaction) were pretreated with 10 μMGβγ inhibitor (in DMSO) for 10 min before challenge with 1 μM fMLP for 90 s in a 37° C. water bath and then immediately transferred to an ice-water bath. Cells were recovered by centrifugation at 500 g and washed two times with ice-cold Tris-buffered saline, pH 7.4. […] Chemiluminescence was analyzed using a charge-coupled device camera in a UVP Epi-Chem II Darkroom imaging system. Results were expressed as percent fMLP-stimulated GTP Rac1 normalized to total Rac1 with the background subtracted.

Experiment [2] relates to differentiated HL60 cells. The experiment can be described thus: fMLP-induced chemotaxis of differentiated HL60 cells (Boyden chamber). The class given is cell-based, human. To be noted: 10 μM compound, 250 nM fMLP; result in words. The procedure: Same as A with purified human neutrophils.
Differentiated HL60 cells (200 k) were pretreated with 10 μM concentrations of the indicated compound, challenged with 250 nM fMLP, and assayed for chemotaxis in a Boyden chamber for 1 h at 37° C. […] Chemotaxis was quantified as above by subtracting out background cells (0-10 cells) in the absence of chemoattractant to obtain total transmigrated cells (−100 cells GM-CSF+vehicle) and represented as the percentage of GM-CSF-treated control cells. No statistically significant difference from control was seen by ANOVA. […] Primary human neutrophils were isolated from whole blood to ≧80% purity. Neutrophils (2×10^5) were pretreated with gallein (10 μM), M119 (10 μM), M119B (10 μM), or wortmannin (wtmn.) (1 μM) and then challenged with 250 nM fMLP or 10 nM IL-8 to evaluate chemotaxis in a Boyden chamber for 1 h at 37° C. […] NS, not statistically different from control. […] Primary human neutrophils were isolated and treated (250 nM fMLP±gallein) as described above. Chemotaxis was quantified as above by subtracting out background cells to obtain total transmigrated cells and represented as the percentage of fMLP-treated control cells. Data shown are pooled from two independent experiments, each in duplicate, ±S.E.M.
Chemotaxis was assayed using a Boyden chamber (Neuro Probe, Gaithersburg, Md.) using 3-μm polyvinylpyrrolidone-free polycarbonate filters (Neuro Probe). HL60 cells (differentiated for 4 days) were washed with and resuspended in HBSS containing 1% bovine serum albumin to a final concentration of 1×10^6 cells/ml. Primary human neutrophils were washed and resuspended in NaCl buffer (140 mM NaCl, 4 mM KCl, 10 mM D-glucose, 10 mM HEPES, pH 7.4, 1 mM MgCl2, and 1 mM CaCl2) to a final concentration of 1×10^6 cells/mi. Chemoattractant [1 μM granulocyte-macrophage-colony stimulating factor (GM-CSF), 10 nM IL-8, or 250 nM fMLP; Sigma Aldrich] was added to the bottom chamber in HBSS containing 1% bovine serum albumin.

Take `O=C(O)C1CCCCC1c1c2ccc(=O)c(O)c-2oc2c(O)c(O)ccc12` (stereo not drawn) [Compound M119, cyclohexanecarboxylic acid, 2-(4,5,6-trihydroxy-3-oxo-3H-xanthen-9-yl)-(9cl)]: in experiment [1], the “effect on fMLP-induced Rac1 activation” value was “inhibited”. For the same compound, the “effect on fMLP-induced chemotaxis” value in experiment [2] was “significantly blunted migration; also recorded: inhibited”.
On the same counts, the results for `O=C(O)c1ccccc1-c1c2ccc(=O)c(O)c-2oc2c(O)c(O)ccc12` (racemic) [Gallein] are “inhibited” and “inhibited”.
On the same counts, the results for `O=C(O)C1CCCCC1c1c2ccc(=O)cc-2oc2cc(O)ccc12` (stereo not drawn) [Compound M119B] are “little effect” and “no effect on migration”.
